# From US20220136033A1, “Kits and Assays for Determining Bacterial Cell Viability” (priority 2020, published 2022)
# Several values for one entry are separate records, joined by “and”; a condition that tells them apart may be missing. Equal values may be shown once. Where a name gives a salt, the structure may show the parent alone.
# Columns and labels:
# [1] = tested on: Gram-negative and Gram-positive bacteria; assay: Bright-field microscopy viability staining with erythrosin B; format: cell-based
# Protocol: Growth and treatments of bacteria. To prepare cells for viability studies, 3 mL overnight bacterial cultures were grown in Luria Broth. Fresh 5 mL cultures were inoculated from the overnight cultures and grown for 1 to 4 hours until reaching an OD600 of 0.4-1.1. Cells were harvested by centrifugation (15,000 g for 4 minutes) and then resuspended in phosphate buffered saline (PBS). A portion of these cells were kept at room temperature (untreated controls), while the remainder were transferred into separate microfuge tubes for different treatments. For heat shock treatment, microfuge tubes were placed at 70° C. for 30 minutes before returning to room temperature. For ethanol treatment, 100% ethanol (Decon Labs, Inc., PA, USA product number 2716) was added to cell suspensions to a final concentration of 30%. Cell mixtures were incubated at 37° C. for 30 minutes, centrifuged, and then the pellet was resuspended in PBS. For CaCl2 treatment, cells were centrifuged, and the pellet was resuspended in 1 mL of ice-cold 100 mM CaCl2 and left on ice for 45 minutes. After this initial incubation, the cells were centrifuged and resuspended in 1004 of 100 mM CaCl2.
# Assaying bacterial viability. For bright-field microscopy assays, 104 of each cell suspension (untreated, heat-shocked, ethanol-treated and CaCl2-treated) was mixed with 104 of 0.08% erythrosin B and incubated for 5 minutes at room temperature. For CaCl2-treated cells, mixtures were placed at 42° C. for 60 seconds before returning to room temperature for the remainder of the incubation. 5 μl of the incubated dye:cell mixtures were taken to prepare wet mounts. Imaging was performed on a […] Olympus BX61 microscope using an UPlanSApo 100X/1.14 NA oil objective lens with an Olympus SC10 camera.
# [2] = Concentration of filtered EB stock solution by A530 reference; format: physicochemical; settings: 0.1% (w/v) preparation in 10 mM Tris pH 7.5, undissolved dye removed by 0.22 μm filter
# Protocol: Erythrosin B (EB, Sigma, Mo., USA 200964-5G) was prepared by dissolving powder in 10 mM Tris pH 7.5. Published values of the solubility of EB in aqueous solutions vary and may result from different preparations of the dye and from which supplier it is purchased. A small amount of undissolved dye was present when preparing a 0.1% (w/v) solution. This stock solution was filtered through a 0.22 μm filter to remove undissolved dye. To determine the concentration of this stock solution a fresh, dilute EB solution was prepared in which all dye fully dissolved after 10 minutes of stirring. This dilute solution was serially diluted and A530 readings (the wavelength of maximal absorbance for EB) were collected generating a reference relating EB dye concentration to A530. The filtered, stock solution of EB was then serially diluted, and absorbance values of the dilutions were compared to the reference absorbance values for the dilute solution. The stock EB concentration was determined to be 0.08% and is used throughout this work.
# [3] = Excitation and emission spectra comparison; format: physicochemical; settings: approx.
# Excerpt: FIG. 11. The excitation and emission spectra for erythrosin B and propidium iodide, another cell viability dye that works by membrane exclusion, were compared. Erythrosin B has a narrow range for both excitation (approx. 480-550 nm) and emission (approx. 540-610 nm) compared to propidium iodide (excitation of approx. 300-350 nm and 475-575 nnm; emission of approx. 570-750 nm).
# Many experiments involving fluorescent molecules, including viability assays, try to multiplex (use more than one fluorescent molecule at a time (e.g., FIG. 12)). A key limitation to the number of different fluorescent molecules that can be simultaneously used is the width of the region(s) of wavelengths for excitation and for emission. By having narrow ranges for both excitation and emission this allows erythrosin B to be more flexible than propidium iodide and potentially be paired with a wider variety of other fluorescent probes.
# bacteria = assay: Chemical treatments mildly affecting membrane permeability, EB staining; format: cell-based; settings: 20 mM EDTA, 0.1-0.5% Triton X100, 0.12 M guanidine HCl or 0.1% SDS
# Excerpt: All cell viability assays have limitations. The CFU method can overestimate the proportion of dead cells because any viable cells that are unable to divide, or dividing more slowly than wild-type, fail to form visible colonies and will be scored as dead. Membrane exclusion dyes, such as EB and propidium iodine, can underestimate the proportion of dead cells as recently dead cells may not have sufficiently compromised membranes to allow the dye to enter the cell. […] How other viability methods score dying cells also varies and it is often difficult to accurately quantitate, or distinguish, a dying cell population (4). For membrane-exclusion dyes, the concern is whether the dye enters cells with mildly compromised membranes that may be dying, but not dead.
# [4] = tested on: Staphylococcus epidermidis; assay: Flow cytometry viability comparison, propidium iodide vs EB-based kit; format: cell-based
# Protocol: (§1) Determining bacterial cell viability by a different membrane exclusion dye (propidium iodide, PI) is not reliable for certain bacteria species and under certain growth conditions (10,11). Using an EB dye and adsorbent resin binding step (hereafter referred to as EB-based Kit), it is possible to reliably determine cell viability in these bacteria species (FIG. 9A-L). In these experiments, overnight cultures of Streptococcus mutans (FIG. 9A-F) and Staphylococcus epidermidis (FIG. 9G-L) were grown in Luria Broth. A portion of each culture was killed by treating with ethanol (50% ethanol, for 30 minutes at 30° C.). Overnight cells and ethanol-treated cells were centrifuged (10,000 g for 6 minutes) and then resuspended in phosphate buffered saline. Both cell suspensions were then sonicated to break apart any clusters (10% for 10 seconds). An approximately equal amount of the untreated, living overnight cells and the ethanol-treated, killed cells were mixed to generate a mixed population sample. 100 microliters of each sample (overnight culture, live/dead mixture, and killed cells) were incubated with 100 microliters of an EB-dye solution for 5 minutes. After incubation, 100 microliters of the adsorbent solution was added and gently agitated for 5 minutes on a vortexer. Following agitation, the tubes were left for 5 minutes to allow the adsorbent to settle and 200 microliters of the liquid solution above the adsorbent was transferred to a new tube. These samples were brought up to 1 mL in phosphate buffered saline. For propidium iodide staining, 40 microliters of the sonicated samples (overnight culture, live/dead mixture, and killed cells) were transferred to a fresh tube and brought up to 1 mL in phosphate buffered saline. 1 microliter of propidium iodide was added to each tube and incubated for 15 minutes before analyzing all samples by flow cytometry (FIGS. 9A-F for Streptococcus mutans and FIGS. 9G-L for Staphylococcus epidermidis).
# Streptococcus mutans = assay: as above; format: cell-based; settings: >90% alive by CFU, 30,000 events
# Protocol: as §1
Molecule,emission range [3],excitation range [3],increase in dye-positive live cells after chemical treatment (bacteria),also measured
"O.O=C([O-])c1ccccc1-c1c2cc(I)c(=O)c(I)c-2oc2c(I)c([O-])c(I)cc12.[Na+].[Na+] [EB, Erythrosin B]",540-610 nm,480-550 nm,,"dye-positive cells after CaCl2 treatment ([1]; CaCl2-treated cells): not all treated cells were dye positive; time until clear differences between dye-negative and dye-positive cells were visible ([1]; dye incubation, bright-field): ≤ 5 min; dye-positive cells after heat shock or ethanol treatment ([1]; heat shocked and ethanol-treated organisms): virtually all treated cells were dye-positive; healthy cells dye-positive by bright-field microscopy when incubated with EB ([1]; untreated cells, all species examined): < 3%; stock EB concentration [2]: 0.08%"
O=C(O)CN(CCN(CC(=O)O)CC(=O)O)CC(=O)O [EDTA],,,did not result in an observable increase in dye-positive live cells,
"CC[N+](C)(CC)CCC[n+]1c(-c2ccccc2)c2cc(N)ccc2c2ccc(N)cc21.[I-].[I-] [PI, propidium iodide]",570-750 nm,300-350 nm and 475-575 nm,,"cells dead, Live/Dead Mixture sample ([4]; near-equal mixture of live and ethanol-killed cells): 95%; cells dye-positive (dead), overnight culture ([4]; overnight culture, >90% alive by CFU, 30,000 events): ~61%; cells dye-positive (dead), overnight culture (Streptococcus mutans): virtually all cells"
CCCCCCCCCCCCOS(=O)(=O)[O-].[Na+] [SDS],,,did not result in an observable increase in dye-positive live cells,
N=C(N)N [guanidine HCl],,,did not result in an observable increase in dye-positive live cells,
Triton X100,,,did not result in an observable increase in dye-positive live cells,
